Holding throughout (assay): Radiometric protein kinase assay (33PanQinase), Assay Condition A (thiol containing)
Format in all cases: biochemical

One test addresses CDK12 wt/CycK (Homo sapiens (Human), UniProt Q9NYV4). Particulars: thiol containing (1.2 mM DTT), ATP 0.3 μM. The method in brief: (§1)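 Recombinant human kinases assayed radiometrically (33PanQinase) with 33P-ATP incorporation into substrate, 60 min at 30° C, thiol-containing buffer, 1% DMSO final. Ten concentrations from 1×10^−04M to 3×10^−09M tested in singlicate. Residual activity normalized to no-enzyme and no-inhibitor controls; IC50 by least-squares fit.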

A further test addresses CDK7/CycH/MAT1 (Homo sapiens (Human), UniProt P50613). Particulars: thiol containing (1.2 mM DTT), ATP 3.0 μM. The method in brief:
as §1

For the next test, the target named is CDK2/CycA2 (Homo sapiens (Human), UniProt P24941). Conditions: thiol containing (1.2 mM DTT), ATP 0.3 μM. A digest of the protocol:
as §1

Some results are limits rather than exact numbers.

CDK7/CycH/MAT1, sequence (P50613 whole entry): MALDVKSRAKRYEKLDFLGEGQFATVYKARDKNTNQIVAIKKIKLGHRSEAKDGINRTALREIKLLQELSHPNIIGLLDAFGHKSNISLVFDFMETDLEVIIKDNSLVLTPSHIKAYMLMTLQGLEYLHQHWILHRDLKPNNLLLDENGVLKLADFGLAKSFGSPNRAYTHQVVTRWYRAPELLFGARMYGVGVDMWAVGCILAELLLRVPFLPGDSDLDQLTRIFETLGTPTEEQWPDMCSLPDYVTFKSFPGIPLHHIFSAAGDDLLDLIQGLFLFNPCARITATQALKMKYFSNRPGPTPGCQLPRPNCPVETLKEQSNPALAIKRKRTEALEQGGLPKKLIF
CDK7/CycH/MAT1, sequence (P51946 whole entry partner): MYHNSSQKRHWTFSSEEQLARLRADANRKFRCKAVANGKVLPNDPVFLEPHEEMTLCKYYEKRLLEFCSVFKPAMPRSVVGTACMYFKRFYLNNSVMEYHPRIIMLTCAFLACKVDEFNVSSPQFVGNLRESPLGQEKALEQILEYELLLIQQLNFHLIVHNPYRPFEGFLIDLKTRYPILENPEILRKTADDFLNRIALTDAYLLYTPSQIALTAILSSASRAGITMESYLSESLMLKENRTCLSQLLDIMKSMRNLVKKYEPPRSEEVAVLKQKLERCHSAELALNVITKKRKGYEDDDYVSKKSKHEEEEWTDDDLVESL
CDK7/CycH/MAT1, sequence (P51948 whole entry partner): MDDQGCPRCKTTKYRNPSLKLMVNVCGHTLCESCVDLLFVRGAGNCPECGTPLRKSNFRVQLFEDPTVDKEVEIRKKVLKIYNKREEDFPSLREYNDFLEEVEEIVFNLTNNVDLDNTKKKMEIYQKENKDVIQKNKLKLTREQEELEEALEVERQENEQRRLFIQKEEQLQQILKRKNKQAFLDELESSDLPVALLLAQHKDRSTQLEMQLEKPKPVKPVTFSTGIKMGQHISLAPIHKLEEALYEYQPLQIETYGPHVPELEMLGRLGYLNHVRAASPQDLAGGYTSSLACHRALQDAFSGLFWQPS
CDK12 wt/CycK, sequence (Q9NYV4 whole entry): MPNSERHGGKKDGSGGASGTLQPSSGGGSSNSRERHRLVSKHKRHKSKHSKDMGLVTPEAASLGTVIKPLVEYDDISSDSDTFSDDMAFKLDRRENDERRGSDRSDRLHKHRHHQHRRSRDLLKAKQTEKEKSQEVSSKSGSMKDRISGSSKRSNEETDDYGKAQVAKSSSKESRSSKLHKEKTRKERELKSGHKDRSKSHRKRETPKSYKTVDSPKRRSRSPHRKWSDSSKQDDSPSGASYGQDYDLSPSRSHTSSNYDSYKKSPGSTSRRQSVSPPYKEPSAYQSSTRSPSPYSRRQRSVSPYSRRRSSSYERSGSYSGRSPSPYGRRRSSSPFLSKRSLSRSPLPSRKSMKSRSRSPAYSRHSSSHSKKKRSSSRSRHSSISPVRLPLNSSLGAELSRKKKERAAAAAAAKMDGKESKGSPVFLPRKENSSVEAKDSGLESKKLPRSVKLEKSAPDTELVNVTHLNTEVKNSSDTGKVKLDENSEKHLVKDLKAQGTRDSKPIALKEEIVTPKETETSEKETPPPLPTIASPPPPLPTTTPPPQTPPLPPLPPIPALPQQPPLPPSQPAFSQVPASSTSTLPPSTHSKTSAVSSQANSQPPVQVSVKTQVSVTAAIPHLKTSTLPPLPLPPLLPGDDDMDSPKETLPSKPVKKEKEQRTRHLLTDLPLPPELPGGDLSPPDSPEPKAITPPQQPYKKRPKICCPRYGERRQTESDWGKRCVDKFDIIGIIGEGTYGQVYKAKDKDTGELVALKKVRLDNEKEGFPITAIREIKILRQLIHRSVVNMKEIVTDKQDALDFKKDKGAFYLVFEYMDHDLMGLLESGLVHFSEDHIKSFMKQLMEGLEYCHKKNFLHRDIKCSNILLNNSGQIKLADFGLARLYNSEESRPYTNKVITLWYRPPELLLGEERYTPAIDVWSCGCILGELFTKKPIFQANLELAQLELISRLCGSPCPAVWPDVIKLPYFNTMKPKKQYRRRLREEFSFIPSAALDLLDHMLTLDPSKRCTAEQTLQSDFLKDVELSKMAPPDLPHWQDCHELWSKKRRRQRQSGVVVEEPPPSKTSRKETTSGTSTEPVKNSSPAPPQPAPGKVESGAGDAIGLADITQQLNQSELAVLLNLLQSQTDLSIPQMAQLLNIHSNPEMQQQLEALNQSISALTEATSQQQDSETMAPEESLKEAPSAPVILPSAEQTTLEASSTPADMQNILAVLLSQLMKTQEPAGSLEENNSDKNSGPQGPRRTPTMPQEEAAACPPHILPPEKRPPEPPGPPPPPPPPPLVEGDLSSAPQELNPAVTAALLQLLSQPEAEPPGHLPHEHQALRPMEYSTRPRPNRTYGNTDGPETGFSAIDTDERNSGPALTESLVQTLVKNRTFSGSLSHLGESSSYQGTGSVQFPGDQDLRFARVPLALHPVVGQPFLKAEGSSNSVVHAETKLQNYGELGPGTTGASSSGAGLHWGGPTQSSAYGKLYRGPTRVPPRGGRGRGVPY
CDK12 wt/CycK, sequence (O75909 whole entry partner): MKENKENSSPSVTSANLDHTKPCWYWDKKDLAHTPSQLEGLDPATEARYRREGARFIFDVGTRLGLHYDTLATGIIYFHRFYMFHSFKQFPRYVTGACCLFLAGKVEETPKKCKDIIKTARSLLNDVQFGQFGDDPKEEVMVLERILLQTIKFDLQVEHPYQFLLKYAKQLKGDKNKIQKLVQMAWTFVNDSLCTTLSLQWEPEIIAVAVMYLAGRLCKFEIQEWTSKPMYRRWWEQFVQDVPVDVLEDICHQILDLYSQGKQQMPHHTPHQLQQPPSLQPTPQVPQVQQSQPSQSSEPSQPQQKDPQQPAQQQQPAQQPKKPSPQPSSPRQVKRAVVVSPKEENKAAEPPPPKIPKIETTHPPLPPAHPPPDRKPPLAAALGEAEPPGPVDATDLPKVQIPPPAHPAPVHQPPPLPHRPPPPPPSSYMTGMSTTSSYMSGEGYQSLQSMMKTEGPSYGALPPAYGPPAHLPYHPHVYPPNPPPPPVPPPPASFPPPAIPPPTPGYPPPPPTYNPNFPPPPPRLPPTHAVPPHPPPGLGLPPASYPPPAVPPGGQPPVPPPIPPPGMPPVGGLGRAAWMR

By IC50 is commonly meant the midpoint of a concentration-inhibition curve. A low value points to greater potency in that assay. With `CCC(=O)Nc1ccc(C(=O)N2CC[C@@H](Nc3ncc4ccc(C(=O)N(C)C)cc4n3)C2)cc1` [Example 59, (R)—N,N-dimethyl-2-((1-(4-propionamidobenzoyl)pyrrolidin-3-yl)amino)quinazoline-7-carboxamide], the results for the IC50 against CDK12 wt/CycK, on CDK7/CycH/MAT1 and against CDK2/CycA2 were at most 100 nM, 100 to 1000 nM and at most 100 nM, respectively.
For the molecule `CCC(=O)Nc1ccc(C(=O)N2CC[C@@H](Nc3ncc4ccc(=O)[nH]c4n3)C2)cc1` [Example 60, (R)—N-(4-(3-((7-oxo-7,8-dihydropyrido[2,3-d]pyrimidin-2-yl)amino)pyrrolidine-1-carbonyl)phenyl)propionamide], the IC50 against CDK12 wt/CycK was at most 100 nM; against CDK7/CycH/MAT1 it was 1000 to 10000 nM; on CDK2/CycA2, 1000 to 10000 nM.
With `C=CC(=O)Nc1ccc(C(=O)N2C[C@H](Nc3ncc4ccccc4n3)[C@@H](F)C2)cc1` [Example 63, N-(4-((3S,4S)-3-fluoro-4-(quinazolin-2-ylamino)pyrrolidine-1-carbonyl)phenyl)acrylamide], the IC50 against CDK12 wt/CycK was in the range of 100 to 1000 nM; against CDK7/CycH/MAT1 it was 1000 to 10000 nM; against CDK2/CycA2, 10000 to 30000 nM.
For the molecule `C=CC(=O)Nc1ccc(C(=O)N2CC(Nc3ncc4ccccc4n3)C2)cc1` [Example 64, N-(4-(3-(quinazolin-2-ylamino)azetidine-1-carbonyl)phenyl)acrylamide], the IC50 against CDK12 wt/CycK fell in the range of 1000 to 10000 nM; at CDK7/CycH/MAT1, 10000 to 30000 nM; against CDK2/CycA2 it was 1000 to 10000 nM.
Take `CN(C)C/C=C/C(=O)Nc1ccc(C(=O)N2CC[C@@H](Nc3ncc4ccccc4n3)C2)cc1` [Example 65, (R,E)-4-(dimethylamino)-N-(4-(3-(quinazolin-2-ylamino)pyrrolidine-1-carbonyl)phenyl)but-2-enamide]: the IC50 on CDK12 wt/CycK, at CDK7/CycH/MAT1 and at CDK2/CycA2 was 100 to 1000 nM in each case.
On to `CN(C)C/C=C/C(=O)Nc1ccc(C(=O)N2CCC[C@@H](Nc3ncc4ccccc4n3)C2)cc1` [Example 66, (R,E)-4-(dimethylamino)-N-(4-(3-(quinazolin-2-ylamino)piperidine-1-carbonyl)phenyl)but-2-enamide], for which the 50% inhibitory concentration (IC50) was 1000 to 10000 nM against CDK12 wt/CycK, 30000 to 100000 nM against CDK7/CycH/MAT1 and 30000 to 100000 nM against CDK2/CycA2.
Turning to `C=CC(=O)Nc1c(C)cc(C(=O)N2CC[C@@H](Nc3ncc4ccccc4n3)C2)cc1F` [Example 75, (R)—N-(2-fluoro-6-methyl-4-(3-(quinazolin-2-ylamino)pyrrolidine-1-carbonyl)phenyl)acrylamide], the IC50 on CDK12 wt/CycK fell in the range of 1000 to 10000 nM; on CDK7/CycH/MAT1, 10000 to 30000 nM; on CDK2/CycA2, 10000 to 30000 nM.
As for `CC#CC(=O)Nc1ccc(C(=O)N2CC[C@@H](Nc3ncc4ccccc4n3)C2)cc1` [Example 77, (R)—N-(4-(3-(quinazolin-2-ylamino)pyrrolidine-1-carbonyl)phenyl)but-2-ynamide], the IC50 on CDK12 wt/CycK is at most 100 nM; against CDK7/CycH/MAT1 it was 100 to 1000 nM; on CDK2/CycA2, 100 to 1000 nM.
As for `C=CC(=O)Nc1ccc(C(=O)N2CC[C@@H](Nc3ncc4ccccc4n3)C2)c(C)c1` [Example 78], the 50% inhibitory concentration (IC50) against CDK12 wt/CycK is 100 to 1000 nM; on CDK7/CycH/MAT1, 1000 to 10000 nM; on CDK2/CycA2 it was 1000 to 10000 nM.
In the case of `C=CC(=O)N1CCOc2cc(C(=O)N3CC[C@@H](Nc4ncc5ccccc5n4)C3)ccc21` [Example 80, (R)-1-(7-(3-(quinazolin-2-ylamino)pyrrolidine-1-carbonyl)-2H-benzo[b][1,4]oxazin-4(3H)-yl)prop-2-en-1-one], the IC50 was at most 100 nM against CDK12 wt/CycK, 100 to 1000 nM at CDK7/CycH/MAT1 and 100 to 1000 nM against CDK2/CycA2.
For `COc1cc(C(=O)N2CC[C@@H](Nc3ncc4ccccc4n3)C2)ccc1NC(=O)/C=C/CN(C)C` [Example 81, (R,E)-4-(dimethylamino)-N-(2-methoxy-4-(3-(quinazolin-2-ylamino)pyrrolidine-1-carbonyl)phenyl)but-2-enamide], the results for the IC50 on CDK12 wt/CycK, against CDK7/CycH/MAT1 and against CDK2/CycA2 were 100 to 1000 nM, 100 to 1000 nM and 1000 to 10000 nM, respectively.

(Values after patent US11447493B2 (Kinnate Biopharma Inc., priority 2018, dated 2022).)
